Experimental data: US4552684A, “Dichroic dye and liquid crystalline composition for color display” (Mitsui Toatsu Chemicals, Inc., priority 1983, dated 1985)

How the values were obtained:
Format in all cases: physicochemical
[1] = solubility of dye in liquid crystals E-8; details: for Solubility: in liquid crystals E-8 at 25° C.
Description: This is the solubility (% by weight) of each dye in liquid crystals E-8 (made by Merck & Co.) at 25° C.

[2] = light fastness (total current after exposure of cell to solar light for 200 hours); details: for Light fastness: 0.5% by weight dye in E-8, solar light 200 hours, rectangular wave 6Vp-p, 32 Hz, total current
Description: 0.5% by weight of each dye was dissolved in the liquid crystals E-8, and the solution was sealed into a liquid crystal wall having a gap of 10 microns and including a pair of facing transparent electrodes with an area of 1.0 cm^2. The cell was exposed to solar light for 200 hours. Then, a voltage of a rectangular wave form (6Vp-p, 32 Hz) was applied, and the total current was measured (μA/cm^2).

[3] = dichroic ratio of dye dissolved in liquid crystals (homogeneously aligned 10 micron cell); details: for Dichroic ratio in liquid crystals E-8: Table 1 method: 1.0% by weight dye, 10 micron gap
Description: The dichroic ratio is determined as follows:
The cell was placed in the light path of a spectro-photometer. Straight polarized light parallel to the alignment of the liquid crystals was applied to the cell, and the absorbance ([…] ) was measured. Furthermore, straight polarized light at right angles to the alignment of the liquid crystals was applied, and the absorbance ([…] ) was measured. The dichroic ratio was calculated from the following equation. [formula]

color of dye in toluene = assay: color of dye in toluene
[4] = maximum absorption wavelength of dye in liquid crystals
Description: The crude dye was purified by the same column chromatographic technique as in Example 1 to give a blue dye having a melting point of 155° to 157° C. (Dye No.19 in Table 1). The dichroic ratio of the dye was measured in the liquid crystals E-8 in the same way as described above with regard to Table 1, and found to be 10.3 (λmax 616 nm). […] When liquid crystals ZLI-1840 were used instead of the liquid crystals E-8, the dichroic ratio of the dye was 10.8 (λmax 612 nm). When liquid crystals ZLI-1275 were used, the dichroic ratio was 10.1 (λmax 616 nm).

[5] = dichroic ratio and maximum absorption wavelength in cyanobiphenyl/cyanoterphenyl liquid crystal mixture
Description: 0.1 Part by weight of the dye No. 8 in Table 1 was dissolved in 10 parts by weight of a liquid crystal mixture composed of 43% of 4-n-pentyl-4'-cyano-biphenyl, 17% of 4-n-propoxy-4'-cyanobiphenyl, 13% of 4-n-pentoxy-4'-cyanobiphenyl, 17% of 4-n-octoxy-4'-cyanobiphenyl and 10% of 4-n-pentyl-4'-cyanoterphenyl. The resulting color liquid crystal mixture was sealed into a glass cell having a gap of 10 microns which had been subjected to homogeneous aligning treatment. The maximum absorption wavelength was 512 nm and the dichroic ratio was 10.2. A display device obtained by sealing this color liquid crystal mixture into a glass liquid crystal display element of the same structure as above including transparent electrodes assumed a red color entirely in the absence of a voltage applied, and when a voltage was applied, only the part of the electrodes became nearly colorless, thus showing a good contrast.

Row | SMILES | Dichroic ratio in liquid crystals E-8 [3] | Color in toluene (color of dye in toluene) | other results
1 | CN(C)c1ccc(N=Nc2ccc(N=Nc3ccccc3)cc2)cc1 [A, reference compound] | – | – | Solubility [1]: 1.1 % by weight; Light fastness [2]: 4.2 μA/cm^2
2 | CCCCc1ccc(Nc2cccc3c2C(=O)c2cccc(Nc4ccc(CCCC)cc4)c2C3=O)cc1 [B, reference compound] | – | – | Solubility [1]: 0.7 % by weight; Light fastness [2]: 3.6 μA/cm^2
3 | Nc1c2c(c(O)c3oc(C4CCCCC4)nc13)C(=O)c1ccccc1C2=O [C, reference compound] | – | – | Solubility [1]: 0.4 % by weight
4 | CCCCC1CCC(c2nc3c(N)c4c(c(O)c3o2)C(=O)c2ccccc2C4=O)CC1 (centres unmarked) [Dye No. 1] | 9.5 | Red | –
5 | CCCCCCCCCC1CCC(c2nc3c(N)c4c(c(O)c3o2)C(=O)c2c(N)cccc2C4=O)CC1 (centres unmarked) [Dye No. 2] | 8.2 | Violet | –
6 | CCCCCOC(=O)C1CCC(c2nc3cc4c(c(O)c3o2)C(=O)c2c(O)ccc(O)c2C4=O)CC1 (centres unmarked) [Dye No. 3] | 9.3 | Orange | –
7 | CCCCC[C@H]1CC[C@H](c2nc3cc4c(c(O)c3o2)C(=O)c2ccccc2C4=O)CC1 [Dye No. 4] | 7.2 | Yellow | –
8 | CC(C)(C)c1ccc(C2CCC(c3nc4c(N)c5c(c(O)c4o3)C(=O)c3ccccc3C5=O)CC2)cc1 (centres unmarked) [Dye No. 5] | 10.1 | Red | –
9 | CCCCOCCC1CCC(c2nc3c(Br)c4c(c(O)c3o2)C(=O)c2ccccc2C4=O)CC1 (centres unmarked) [Dye No. 6] | 6.8 | Orange | –
10 | CC(CCC1CCC(c2nc3c(O)c4c(c(O)c3o2)C(=O)c2ccccc2C4=O)CC1)CC(C)(C)C (centres unmarked) [Dye No. 7] | 8.1 | Orange | –
11 | CCCCCC1CCC(c2nc3c(N)c4c(c(O)c3o2)C(=O)c2ccccc2C4=O)CC1 (centres unmarked) [Dye No. 8] | 9.5 | Red | –
12 | CCCCCCCCCCCCC1CCC(c2nc3c(N)c4c(c(O)c3o2)C(=O)c2ccccc2C4=O)CC1 (centres unmarked) [Dye No. 9] | 9.3 | Red | –
13 | CCCCCC1CCC(c2nc3c(N)c4c(c(N)c3o2)C(=O)c2ccccc2C4=O)CC1 (centres unmarked) [Dye No. 10] | 8.1 | Reddish violet | –
14 | CCCCCC1CCC(c2nc3cc4c(c(O)c3s2)C(=O)c2ccccc2C4=O)CC1 (centres unmarked) [Dye No. 11] | 8.5 | Yellow | –
15 | CC(C)(C)C1CCC(c2nc3cc4c(c(O)c3s2)C(=O)c2ccccc2C4=O)CC1 (centres unmarked) [Dye No. 13] | 7.8 | Yellow | –
16 | CCCCCCCCC1CCC(c2nc3c(N)c4c(c(O)c3o2)C(=O)c2c(N)ccc(O)c2C4=O)CC1 (centres unmarked) [Dye No. 14] | 10.5 | Blue | –

Row | SMILES | Dichroic ratio in liquid crystals E-8 [3] | Color in toluene (color of dye in toluene) | other results
17 | CCCCCCCCCC1CCC(c2nc3c(N)c4c(c(O)c3o2)C(=O)c2cc(C)ccc2C4=O)CC1 (centres unmarked) [Dye No. 15] | 10.2 | Red | –
18 | CCCCCCCC1CCC(c2nc3c(O)c4c(c(N)c3o2)C(=O)c2ccccc2C4=O)CC1 (centres unmarked) [Dye No. 16] | 8.0 | Red | –
19 | CCCCCC1CCC(c2nc3cc4c(c(NC)c3o2)C(=O)c2ccccc2C4=O)CC1 (centres unmarked) [Dye No. 17] | 6.9 | Orange | –
20 | CCCCCC1CCC(c2nc3cc4c(c(O)c3o2)C(=O)c2c(O)ccc(O)c2C4=O)CC1 (centres unmarked) [Dye No. 18] | 9.8 | Orange | –
21 | CC(CC[C@H]1CC[C@H](c2nc3c(N)c4c(c(O)c3o2)C(=O)c2c(N)ccc(O)c2C4=O)CC1)CC(C)(C)C (some centres unmarked) [Dye No. 19] | 10.3 | Blue | –
22 | CCCCCCCC1CCC(c2nc3cc4c(c(O)c3o2)C(=O)c2c(NC)ccc(NC)c2C4=O)CC1 (centres unmarked) [Dye No. 20] | 9.2 | Blue | –
23 | CCCCCC1CCC(c2nc3cc4c(c(O)c3o2)C(=O)c2ccc(CC(C)C)c(O)c2C4=O)CC1 (centres unmarked) [Dye No. 21] | 8.1 | Orange | –
24 | CC(C)(C)CC(C)(C)[C@H]1CC[C@H](c2nc3c(N)c4c(c(O)c3o2)C(=O)c2c(O)cccc2C4=O)CC1 [Dye No. 22] | 11.6 | Reddish violet | –
25 | CCCCOC(=O)C1CCC(c2nc3c(N)c4c(c(O)c3o2)C(=O)c2c(O)cccc2C4=O)CC1 (centres unmarked) [Dye No. 23] | 8.2 | Reddish violet | –
26 | CCCCCCCC1CCC(c2nc3c(N)c4c(c(O)c3o2)C(=O)c2ccc(C(=O)OCCCC)cc2C4=O)CC1 (centres unmarked) [Dye No. 24] | 8.6 | Reddish violet | –
27 | CCCCCCCC1CCC(c2nc3c(N)c4c(c(N)c3o2)C(=O)c2ccc(C(=O)OCCCC)cc2C4=O)CC1 (centres unmarked) [Dye No. 25] | 9.3 | Reddish violet | –
28 | CCCCc1ccc(OC(=O)C2CCC(c3nc4c(Cl)c5c(c(O)c4o3)C(=O)c3c(Cl)ccc(O)c3C5=O)CC2)cc1 (centres unmarked) [Dye No. 26] | 8.0 | Orange | –
29 | CCCCc1ccc(OC(=O)C2CCC(c3nc4c(N)c5c(c(O)c4o3)C(=O)c3c(N)ccc(O)c3C5=O)CC2)cc1 (centres unmarked) [Dye No. 27] | 9.2 | Blue | –
30 | CC(CC[C@H]1CC[C@H](c2nc3c(N)c4c(c(O)c3o2)C(=O)c2c(N)ccc(O)c2C4=O)CC1)CC(C)(C)C (some centres unmarked) [No.19] | – | – | dichroic ratio ([3]; liquid crystals ZLI-1275): 10.1; dichroic ratio ([3]; liquid crystals ZLI-1840): 10.8; solubility in E-8 ([1]; liquid crystals E-8, temperature not stated (Example 5)): 7.2 % by weight; λmax ([4]; liquid crystals E-8): 616 nm; λmax ([4]; liquid crystals ZLI-1275): 616 nm; λmax ([4]; liquid crystals ZLI-1840): 612 nm
31 | CCCCCC1CCC(c2nc3c(N)c4c(c(O)c3o2)C(=O)c2ccccc2C4=O)CC1 (centres unmarked) [No. 8] | – | – | Solubility [1]: 4.7 % by weight; solubility compared with known dyes A, B and C ([1]; liquid crystals E-8): higher solubility; Light fastness [2]: 2.0 μA/cm^2; light fastness compared with known dyes ([2]; as in Table 2): higher solubility and light fastness than known dyes A, B and C; dichroic ratio ([5]; 0.1 part dye in 10 parts cyanobiphenyl/cyanoterphenyl mixture (Example 4)): 10.2; maximum absorption wavelength ([5]; cyanobiphenyl/cyanoterphenyl mixture (Example 4)): 512 nm
32 | CC(C)(C)CC(C)(C)[C@H]1CC[C@H](c2nc3c(N)c4c(c(O)c3o2)C(=O)c2c(O)cccc2C4=O)CC1 [No. 22] | – | – | dichroic ratio ([3]; liquid crystals ZLI-1840): 12.3; solubility in liquid crystals E-8 ([1]; liquid crystals E-8, temperature not stated (Example 7)): 4.0%
